Activity calls are given as the source filed them. For most assays here, no stated cut-off is given here; in the data, actives have a measured Kd and inactives only a lower limit.
Assays:
[1] = biological target: T1, Phosphatidylinositol 5-phosphate 4-kinase type-2 gamma (Homo sapiens, UniProt Q8TBX8)
T1 sequence (Q8TBX8 whole entry): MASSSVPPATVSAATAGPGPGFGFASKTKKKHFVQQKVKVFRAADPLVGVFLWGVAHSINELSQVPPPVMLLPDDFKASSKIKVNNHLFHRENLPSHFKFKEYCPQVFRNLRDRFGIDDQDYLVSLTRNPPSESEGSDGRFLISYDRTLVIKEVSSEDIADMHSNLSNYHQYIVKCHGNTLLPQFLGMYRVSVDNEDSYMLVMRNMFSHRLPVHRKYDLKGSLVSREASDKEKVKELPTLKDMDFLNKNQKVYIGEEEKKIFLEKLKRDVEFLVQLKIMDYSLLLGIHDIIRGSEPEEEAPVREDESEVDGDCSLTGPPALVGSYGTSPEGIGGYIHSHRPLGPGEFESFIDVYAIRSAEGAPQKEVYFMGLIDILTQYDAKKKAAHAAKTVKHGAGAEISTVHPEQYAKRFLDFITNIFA

[2] = biological target: T2, Tyrosine-protein kinase Tec (Homo sapiens, UniProt P42680)
T2 sequence (P42680 whole entry): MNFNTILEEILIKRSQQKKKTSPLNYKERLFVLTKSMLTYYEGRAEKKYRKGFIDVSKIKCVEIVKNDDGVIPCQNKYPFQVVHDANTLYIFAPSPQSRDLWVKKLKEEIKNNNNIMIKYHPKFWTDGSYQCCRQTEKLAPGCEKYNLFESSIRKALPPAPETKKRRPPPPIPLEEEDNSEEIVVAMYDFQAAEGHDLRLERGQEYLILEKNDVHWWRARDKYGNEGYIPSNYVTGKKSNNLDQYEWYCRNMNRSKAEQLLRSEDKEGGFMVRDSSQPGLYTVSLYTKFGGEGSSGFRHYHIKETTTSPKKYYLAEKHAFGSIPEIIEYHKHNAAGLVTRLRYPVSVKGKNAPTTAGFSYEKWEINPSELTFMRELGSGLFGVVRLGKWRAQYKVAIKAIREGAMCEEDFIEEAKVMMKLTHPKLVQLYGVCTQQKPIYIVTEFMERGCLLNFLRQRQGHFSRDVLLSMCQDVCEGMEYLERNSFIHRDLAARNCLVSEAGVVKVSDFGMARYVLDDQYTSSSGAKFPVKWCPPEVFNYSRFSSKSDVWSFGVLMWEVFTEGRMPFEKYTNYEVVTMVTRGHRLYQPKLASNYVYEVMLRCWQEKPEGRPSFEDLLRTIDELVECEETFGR

[3] = biological target: MAP/microtubule affinity-regulating kinase 3 (Homo sapiens, UniProt P27448)
Chain of MAP/microtubule affinity-regulating kinase 3 (P27448 whole entry): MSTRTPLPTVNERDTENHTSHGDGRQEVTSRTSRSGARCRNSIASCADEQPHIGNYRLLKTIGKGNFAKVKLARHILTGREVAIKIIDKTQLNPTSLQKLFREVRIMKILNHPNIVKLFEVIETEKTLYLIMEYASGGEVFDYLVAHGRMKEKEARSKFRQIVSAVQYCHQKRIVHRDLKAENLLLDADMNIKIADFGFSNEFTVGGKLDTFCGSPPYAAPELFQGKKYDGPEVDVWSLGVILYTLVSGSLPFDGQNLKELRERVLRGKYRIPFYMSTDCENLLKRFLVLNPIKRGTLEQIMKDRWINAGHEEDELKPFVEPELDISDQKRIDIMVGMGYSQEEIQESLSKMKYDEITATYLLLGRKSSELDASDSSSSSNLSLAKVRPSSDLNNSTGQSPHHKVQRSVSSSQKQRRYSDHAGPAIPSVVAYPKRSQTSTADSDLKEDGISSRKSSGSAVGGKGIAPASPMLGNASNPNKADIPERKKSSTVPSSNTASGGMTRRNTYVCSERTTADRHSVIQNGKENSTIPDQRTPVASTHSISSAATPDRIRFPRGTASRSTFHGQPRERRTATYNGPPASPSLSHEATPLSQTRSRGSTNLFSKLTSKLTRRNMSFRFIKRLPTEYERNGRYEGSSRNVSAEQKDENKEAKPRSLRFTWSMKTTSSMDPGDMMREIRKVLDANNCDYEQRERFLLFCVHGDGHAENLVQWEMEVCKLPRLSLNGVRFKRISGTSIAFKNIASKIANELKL

[4] = biological target: Serine/threonine-protein kinase 26 (Homo sapiens, UniProt Q9P289)
Chain of Serine/threonine-protein kinase 26 (Q9P289 whole entry): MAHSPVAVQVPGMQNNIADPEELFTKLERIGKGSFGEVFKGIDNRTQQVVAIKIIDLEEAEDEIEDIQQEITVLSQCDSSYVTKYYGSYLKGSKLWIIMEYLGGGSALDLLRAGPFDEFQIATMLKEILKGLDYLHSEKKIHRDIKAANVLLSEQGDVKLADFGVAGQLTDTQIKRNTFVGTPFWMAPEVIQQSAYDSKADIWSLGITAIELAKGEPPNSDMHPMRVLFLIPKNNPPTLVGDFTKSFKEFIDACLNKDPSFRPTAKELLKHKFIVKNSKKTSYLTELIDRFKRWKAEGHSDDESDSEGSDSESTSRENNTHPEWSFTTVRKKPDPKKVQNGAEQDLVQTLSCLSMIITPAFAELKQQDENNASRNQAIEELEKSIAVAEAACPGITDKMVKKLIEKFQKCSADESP

[5] = biological target: T3, Non-receptor tyrosine-protein kinase TNK1 (Homo sapiens, UniProt Q13470)
T3 sequence (Q13470 whole entry): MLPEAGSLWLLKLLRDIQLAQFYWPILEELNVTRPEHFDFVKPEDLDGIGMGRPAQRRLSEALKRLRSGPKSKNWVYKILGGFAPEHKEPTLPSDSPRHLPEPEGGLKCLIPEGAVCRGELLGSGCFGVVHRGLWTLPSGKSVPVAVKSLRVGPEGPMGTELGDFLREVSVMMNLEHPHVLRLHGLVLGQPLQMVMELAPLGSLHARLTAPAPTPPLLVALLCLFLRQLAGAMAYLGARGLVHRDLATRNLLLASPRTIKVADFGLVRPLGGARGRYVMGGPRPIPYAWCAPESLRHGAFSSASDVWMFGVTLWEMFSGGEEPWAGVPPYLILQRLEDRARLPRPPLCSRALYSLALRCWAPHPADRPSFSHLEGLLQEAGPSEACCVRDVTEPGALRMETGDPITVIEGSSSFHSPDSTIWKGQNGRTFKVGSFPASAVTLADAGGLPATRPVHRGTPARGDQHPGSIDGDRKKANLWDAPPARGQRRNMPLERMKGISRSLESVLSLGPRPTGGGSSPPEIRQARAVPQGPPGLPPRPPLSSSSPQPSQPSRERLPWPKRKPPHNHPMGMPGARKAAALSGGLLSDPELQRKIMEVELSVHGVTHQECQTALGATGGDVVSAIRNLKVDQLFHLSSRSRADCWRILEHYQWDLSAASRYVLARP

[6] = biological target: Atypical kinase COQ8A, mitochondrial (Homo sapiens, UniProt Q8NI60)
Chain of Atypical kinase COQ8A, mitochondrial (Q8NI60 whole entry): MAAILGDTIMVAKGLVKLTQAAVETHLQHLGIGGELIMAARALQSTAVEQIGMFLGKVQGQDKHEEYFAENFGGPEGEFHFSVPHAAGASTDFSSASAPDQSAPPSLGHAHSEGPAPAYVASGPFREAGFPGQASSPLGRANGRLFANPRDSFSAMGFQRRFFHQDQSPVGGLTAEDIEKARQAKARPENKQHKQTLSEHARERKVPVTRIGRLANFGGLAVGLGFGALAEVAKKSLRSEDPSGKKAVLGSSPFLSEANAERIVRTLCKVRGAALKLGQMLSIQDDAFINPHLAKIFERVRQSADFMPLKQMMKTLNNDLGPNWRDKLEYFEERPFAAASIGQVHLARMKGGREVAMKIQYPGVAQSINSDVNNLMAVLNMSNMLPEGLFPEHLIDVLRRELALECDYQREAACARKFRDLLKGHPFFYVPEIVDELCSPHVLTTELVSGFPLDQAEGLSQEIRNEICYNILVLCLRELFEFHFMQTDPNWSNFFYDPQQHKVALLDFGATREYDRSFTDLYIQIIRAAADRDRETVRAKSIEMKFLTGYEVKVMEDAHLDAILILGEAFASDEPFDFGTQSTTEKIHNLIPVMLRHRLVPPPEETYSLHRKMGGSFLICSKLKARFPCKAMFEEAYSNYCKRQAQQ

[7] = biological target: T4, ATP-dependent RNA helicase DDX1 (Homo sapiens, UniProt Q92499)
T4 sequence (Q92499 whole entry): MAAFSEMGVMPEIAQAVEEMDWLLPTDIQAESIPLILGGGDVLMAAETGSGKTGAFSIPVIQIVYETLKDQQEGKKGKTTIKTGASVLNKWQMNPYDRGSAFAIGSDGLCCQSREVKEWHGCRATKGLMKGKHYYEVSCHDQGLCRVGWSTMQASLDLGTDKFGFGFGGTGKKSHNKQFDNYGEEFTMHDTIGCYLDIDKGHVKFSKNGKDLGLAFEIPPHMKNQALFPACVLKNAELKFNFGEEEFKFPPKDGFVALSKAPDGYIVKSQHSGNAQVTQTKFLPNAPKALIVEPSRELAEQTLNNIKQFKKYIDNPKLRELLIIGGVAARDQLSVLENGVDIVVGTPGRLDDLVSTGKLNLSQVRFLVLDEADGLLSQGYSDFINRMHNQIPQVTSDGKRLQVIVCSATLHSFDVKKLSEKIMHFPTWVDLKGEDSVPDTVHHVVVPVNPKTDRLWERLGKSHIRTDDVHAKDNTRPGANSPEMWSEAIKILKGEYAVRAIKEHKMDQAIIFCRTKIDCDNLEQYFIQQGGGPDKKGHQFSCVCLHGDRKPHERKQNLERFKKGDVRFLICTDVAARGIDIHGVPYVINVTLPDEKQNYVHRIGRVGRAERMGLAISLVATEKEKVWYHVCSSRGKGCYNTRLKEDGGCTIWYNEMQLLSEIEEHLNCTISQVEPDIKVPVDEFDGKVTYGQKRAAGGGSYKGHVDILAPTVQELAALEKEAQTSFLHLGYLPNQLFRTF

[8] = biological target: Guanine nucleotide-binding protein G(i) subunit alpha-2 (Homo sapiens, UniProt P04899)
Chain of Guanine nucleotide-binding protein G(i) subunit alpha-2 (P04899 whole entry): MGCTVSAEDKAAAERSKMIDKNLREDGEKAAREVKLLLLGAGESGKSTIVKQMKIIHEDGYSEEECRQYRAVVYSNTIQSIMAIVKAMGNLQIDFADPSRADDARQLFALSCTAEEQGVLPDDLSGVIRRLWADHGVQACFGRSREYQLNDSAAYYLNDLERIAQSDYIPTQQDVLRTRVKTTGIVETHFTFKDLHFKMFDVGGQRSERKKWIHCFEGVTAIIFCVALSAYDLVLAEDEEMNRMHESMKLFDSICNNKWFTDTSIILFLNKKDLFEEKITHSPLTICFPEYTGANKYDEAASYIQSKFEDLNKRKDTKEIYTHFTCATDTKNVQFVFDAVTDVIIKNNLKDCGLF

SMILES | Kd [1] | Kd [2] | Kd [3] | Kd [4] | Kd [5] | Kd [6] | Kd [7] | Kd [8]
Cc1ccc(C(=O)Nc2ccc(Oc3cc4cnn(C)c4cc3-c3cn[nH]c3)c(F)c2)c(=O)n1-c1ccc(F)cc1 [MERESTINIB] | > 30 µM (inactive) | > 30 µM (inactive) | > 30 µM (inactive) | > 30 µM (inactive) | > 30 µM (inactive) | > 30 µM (inactive) | > 30 µM (inactive) | 
CC[C@@](C)(Nc1ccnc(-c2c[nH]c3ncccc23)n1)C(=O)NCC(F)(F)F [DECERNOTINIB] | > 30 µM (inactive) | > 30 µM (inactive) | 0.562 µM (active) | 1.14 µM (active) | 0.046 µM | > 30 µM (inactive) | > 30 µM (inactive) | 
CC1(C)CNc2cc(NC(=O)c3cccnc3NCc3ccncc3)ccc21 [MOTESANIB] |  |  |  |  |  |  | > 30 µM (inactive) | > 30 µM (inactive)
CN(C)C/C=C/C(=O)Nc1cc2c(Nc3ccc(F)c(Cl)c3)ncnc2cc1O[C@H]1CCOC1 [AFATINIB] |  |  |  |  |  |  | > 30 µM (inactive) | > 30 µM (inactive)
Cc1c(Cn2c(C)nc3c(C(=O)O)cc(N4CCOCC4)cc32)cccc1C(F)(F)F [GSK-2636771] | > 30 µM (inactive) | > 30 µM (inactive) | > 30 µM (inactive) | > 30 µM (inactive) | > 30 µM (inactive) | > 30 µM (inactive) | > 30 µM (inactive) | 
C[C@@]1(C(=O)Nc2ccc(F)nc2)CCCN1c1nc(Nc2cc(C3CC3)n[nH]2)c2cccn2n1 [BMS-754807] |  |  |  |  |  |  | > 30 µM (inactive) | > 30 µM (inactive)
O=C(NOC[C@H](O)CO)c1ccc(F)c(F)c1Nc1ccc(I)cc1F [MIRDAMETINIB] | > 30 µM (inactive) | > 30 µM (inactive) | > 30 µM (inactive) | > 30 µM (inactive) | > 30 µM (inactive) | > 30 µM (inactive) | > 30 µM (inactive) | 
N#CCNC(=O)c1ccc(-c2ccnc(Nc3ccc(N4CCOCC4)cc3)n2)cc1 [MOMELOTINIB] | > 30 µM (inactive) | > 30 µM (inactive) |  | > 30 µM (inactive) | > 30 µM (inactive) | > 30 µM (inactive) | > 30 µM (inactive) | > 30 µM (inactive)
C[C@@H]1COC(Nc2ccc3ncnc(Nc4ccc(OCc5nccs5)c(Cl)c4)c3c2)=N1 [VARLITINIB] | > 30 µM (inactive) | > 30 µM (inactive) | > 30 µM (inactive) | > 30 µM (inactive) | > 30 µM (inactive) | > 30 µM (inactive) | > 30 µM (inactive) | 
COc1ccc(-c2ccc3ncc4c(c3c2)n(-c2ccc(N3CCNCC3)c(C(F)(F)F)c2)c(=O)n4C)cn1 [BGT-226 FREE BASE] | 4.79 µM (active) | > 30 µM (inactive) | > 30 µM (inactive) | > 30 µM (inactive) | > 30 µM (inactive) | > 30 µM (inactive) | > 30 µM (inactive) | 
CCN(CCCOc1ccc2c(Nc3cc(CC(=O)Nc4cccc(F)c4)n[nH]3)ncnc2c1)CCOP(=O)(O)O [BARASERTIB] | > 30 µM (inactive) | > 30 µM (inactive) |  | > 30 µM (inactive) | > 30 µM (inactive) | > 30 µM (inactive) | > 30 µM (inactive) | > 30 µM (inactive)

— ChEMBL document CHEMBL3991601, “The target landscape of clinical kinase drugs” (Science, 2017)
